From ChEMBL document CHEMBL1201862, “PubChem BioAssay data set” (2004)
Calls of active or inactive are those of the source.

Experiments:
[1] = target: Hepatocyte nuclear factor 4-alpha (Homo sapiens, UniProt P41235); type: functional, cell-based;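 note: biochemical luminescence-based dose-response counterscreen measuring inhibition of HNF4 dimerization, run alongside a screen for blockers of ABHD5–perilipin-5 interaction; split luciferase complementation of HNF4 fusion proteins in cell lysate measuring dimerization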
[2] = test system: Vero; assay: cells; type: functional; details: Chlorocebus sabaeus
[3] = test system: Vero; assay: cells; type: functional, cell-based; details: Chlorocebus sabaeus
[4] = target: 5-hydroxytryptamine receptor 5A (Homo sapiens, UniProt P47898); assay: Counterscreen for agonists of OPRM1-OPRD1 heterodimerization: luminescence-based cell-based high throughput dose response assay to identify agonists of 5-hydroxytryptamine (serotonin) 5A receptor (HTR5A). [Related pubchem assays (depositor defined):AID504326, AID504355, AID504692, AID504904, AID504905]; type: functional
[5] = target: Mu-type opioid receptor (Homo sapiens, UniProt P35372); assay: (§1) Counterscreen for agonists of heterodimerization of the mu 1 (OPRM1) and delta 1 (OPRD1) opioid receptors: Luminescence-based cell-based high throughput dose response assay to identify agonists of OPRM1 homodimerization.; type: functional
[6] = target: Delta-type opioid receptor (Homo sapiens, UniProt P41143); assay: as §1, with “of OPRD1” for “of OPRM1”, “homodimerization. [Related pubchem assays (depositor defined):AID504326, AID504355, AID504692, AID504904, AID504905]” for “homodimerization.”; type: functional
[7] = test system: Jurkat; assay: SAR Analysis of small molecule inhibitors of […] specific antigen receptor-induced NF-kB activation in a Jurkat cell line using a luminescence assay - Set 3. [Related pubchem assays (depositor defined):AID435022, AID435025, AID465]; type: functional, cell-based; details: Homo sapiens
[8] = test system: HEK293; assay: cytotoxicity in HEK293T NF-kB-Luc cells, SAR follow-up, cytotoxicity control for NF-kB activator project, cell-based, resazurin fluorescence (AID 493251); type: functional; details: Homo sapiens
[9] = test system: HEK293; assay: SAR Analysis of small molecule inhibitors of B-cell specific antigen receptor-induced NF-kB activation in a HEK-293T cell line using a luminescence assay - Set 2. [Related pubchem assays (depositor defined):AID435022, AID435025, AID489021]; type: functional, cell-based; details: Homo sapiens
[10] = target: T1, DNA repair protein RAD52 homolog (Homo sapiens, UniProt P43351); type: functional, biochemical
T1 sequence (P43351 whole entry): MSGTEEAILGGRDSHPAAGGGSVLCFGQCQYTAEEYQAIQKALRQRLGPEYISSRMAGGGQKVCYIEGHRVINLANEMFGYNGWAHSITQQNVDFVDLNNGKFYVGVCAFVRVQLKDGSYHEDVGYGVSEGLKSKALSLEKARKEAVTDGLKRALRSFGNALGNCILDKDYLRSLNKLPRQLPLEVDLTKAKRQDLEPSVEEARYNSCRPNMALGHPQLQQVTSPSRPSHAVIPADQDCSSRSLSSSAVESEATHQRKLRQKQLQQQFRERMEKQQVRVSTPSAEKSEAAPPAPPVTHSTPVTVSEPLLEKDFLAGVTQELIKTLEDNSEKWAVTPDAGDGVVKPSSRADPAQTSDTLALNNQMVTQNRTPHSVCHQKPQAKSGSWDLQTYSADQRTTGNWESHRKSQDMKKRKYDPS

[11] = target: Dual specificity tyrosine-phosphorylation-regulated kinase 1A (Rattus norvegicus, UniProt Q63470); type: biochemical, Homo sapiens
[12] = target: T2, DNA repair and recombination protein RAD54-like (Homo sapiens, UniProt Q92698); assay: inhibitors of human RAD54 branch migration, confirmation, biochemical, fluorescence, cherry-picked samples, dose series (AID 651657); type: functional
T2 sequence (Q92698 whole entry): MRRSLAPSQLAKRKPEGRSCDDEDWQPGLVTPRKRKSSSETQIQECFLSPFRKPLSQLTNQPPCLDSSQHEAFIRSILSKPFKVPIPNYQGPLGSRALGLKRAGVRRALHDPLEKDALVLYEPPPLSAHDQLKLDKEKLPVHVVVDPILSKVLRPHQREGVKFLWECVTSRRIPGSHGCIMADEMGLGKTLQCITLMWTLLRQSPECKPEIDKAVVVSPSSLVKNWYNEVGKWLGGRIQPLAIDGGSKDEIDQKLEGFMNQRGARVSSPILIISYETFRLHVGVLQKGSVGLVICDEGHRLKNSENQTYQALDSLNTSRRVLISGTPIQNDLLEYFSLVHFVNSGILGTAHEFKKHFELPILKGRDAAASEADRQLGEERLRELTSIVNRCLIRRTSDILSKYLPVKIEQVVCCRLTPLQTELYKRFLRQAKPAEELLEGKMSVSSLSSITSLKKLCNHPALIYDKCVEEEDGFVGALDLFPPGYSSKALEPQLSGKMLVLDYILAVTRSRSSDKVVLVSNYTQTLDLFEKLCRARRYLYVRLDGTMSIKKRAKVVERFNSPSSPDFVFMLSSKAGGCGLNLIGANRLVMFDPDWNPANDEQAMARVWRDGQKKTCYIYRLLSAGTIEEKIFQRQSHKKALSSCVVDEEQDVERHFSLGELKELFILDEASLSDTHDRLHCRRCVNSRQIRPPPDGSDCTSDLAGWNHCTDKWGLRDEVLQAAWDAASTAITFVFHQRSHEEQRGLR

[13] = test system: HEK293; assay: inhibitors of LMP1-driven NF-kB reporter, dose response, cell-based, HEK293, luciferase, cherry-pick (AID 588343); type: functional; details: Homo sapiens

Chain of Hepatocyte nuclear factor 4-alpha (P41235 whole entry, the tested form may be a part): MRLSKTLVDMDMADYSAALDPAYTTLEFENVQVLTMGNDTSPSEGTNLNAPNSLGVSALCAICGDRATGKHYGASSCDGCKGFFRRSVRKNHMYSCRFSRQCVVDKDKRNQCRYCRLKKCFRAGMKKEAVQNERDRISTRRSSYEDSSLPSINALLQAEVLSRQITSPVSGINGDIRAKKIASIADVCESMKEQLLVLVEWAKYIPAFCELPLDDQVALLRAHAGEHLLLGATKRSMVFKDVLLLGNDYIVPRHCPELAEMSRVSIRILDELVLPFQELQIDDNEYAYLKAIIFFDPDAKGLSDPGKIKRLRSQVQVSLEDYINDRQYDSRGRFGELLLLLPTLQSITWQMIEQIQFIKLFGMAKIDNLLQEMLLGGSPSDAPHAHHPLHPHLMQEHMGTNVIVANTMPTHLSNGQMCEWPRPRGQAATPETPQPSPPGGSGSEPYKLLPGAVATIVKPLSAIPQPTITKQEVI
Chain of Mu-type opioid receptor (P35372 whole entry): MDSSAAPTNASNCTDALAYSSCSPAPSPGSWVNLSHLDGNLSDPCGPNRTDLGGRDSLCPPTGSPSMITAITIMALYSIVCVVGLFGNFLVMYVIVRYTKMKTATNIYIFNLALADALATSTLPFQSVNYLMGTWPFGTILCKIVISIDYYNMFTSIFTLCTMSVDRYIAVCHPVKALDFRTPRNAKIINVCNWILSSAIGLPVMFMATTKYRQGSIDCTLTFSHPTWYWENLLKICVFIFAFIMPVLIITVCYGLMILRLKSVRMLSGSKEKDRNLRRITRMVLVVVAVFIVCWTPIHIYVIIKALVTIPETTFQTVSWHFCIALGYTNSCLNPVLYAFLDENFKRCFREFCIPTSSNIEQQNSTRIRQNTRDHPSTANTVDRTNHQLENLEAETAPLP
Chain of Delta-type opioid receptor (P41143 whole entry): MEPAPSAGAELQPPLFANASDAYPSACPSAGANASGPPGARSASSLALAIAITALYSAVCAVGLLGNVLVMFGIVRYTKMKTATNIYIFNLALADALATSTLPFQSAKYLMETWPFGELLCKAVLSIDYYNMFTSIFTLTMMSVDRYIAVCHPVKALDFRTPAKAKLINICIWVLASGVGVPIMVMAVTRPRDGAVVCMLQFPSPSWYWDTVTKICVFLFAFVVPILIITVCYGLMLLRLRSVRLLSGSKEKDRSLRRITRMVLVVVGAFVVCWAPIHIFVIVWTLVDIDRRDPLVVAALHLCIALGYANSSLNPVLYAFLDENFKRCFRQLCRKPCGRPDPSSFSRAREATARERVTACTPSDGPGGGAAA
Chain of 5-hydroxytryptamine receptor 5A (P47898 whole entry): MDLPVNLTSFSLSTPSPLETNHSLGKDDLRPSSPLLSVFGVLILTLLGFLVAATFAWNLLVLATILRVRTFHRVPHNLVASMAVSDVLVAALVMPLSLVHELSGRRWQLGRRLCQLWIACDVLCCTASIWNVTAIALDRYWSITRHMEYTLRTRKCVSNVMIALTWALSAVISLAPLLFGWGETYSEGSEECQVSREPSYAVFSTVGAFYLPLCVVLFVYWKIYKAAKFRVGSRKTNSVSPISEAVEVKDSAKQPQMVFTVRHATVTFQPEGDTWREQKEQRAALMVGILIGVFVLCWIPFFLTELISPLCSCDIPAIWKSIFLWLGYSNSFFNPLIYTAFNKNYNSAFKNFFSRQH

COC(=O)c1ccc(Cn2cc(/C=C\[N+](=O)[O-])c3ccccc32)o1
IC50 [1]: 6.73 µM (active)
CC50 [2]: 10.4 µM (active)
IC50 [3]: > 25 µM (active)

O=S(=O)(c1c(Cl)cc(Br)cc1Cl)N1CCN(C(=S)NC2CC2)CC1
EC50 [4]: > 92.5 µM (inactive)
EC50 [5]: > 92.5 µM (inactive)
EC50 [6]: 11.9 µM (inactive)

CNC(=O)CCc1nc(-c2ccc(Cl)cc2)no1
IC50 [7]: > 80 µM (inactive)
IC50 [8]: > 80 µM (inactive)
IC50 [9]: > 80 µM (inactive)

Nc1cc2ccncc2c2ccccc12
AC50 [10]: 14.2 µM (active)
AC50 [11]: 1.23 µM (active)
AC50 [12]: 11.8 µM (active)
AC50 [13]: 9.97 µM (active)
